Reference: EP1285920A1, “C10 Ester sustituted taxanes as antitumor agents” (Florida State University Research Foundation, Inc., priority 2001, dated 2003)

These molecules were tested on HCT116 (assay: In Vitro cytotoxicity measured by the cell colony formation assay). Details: HCT116 colony formation; 72 h with drug, colonies counted after 7 days; ID50 = concentration producing 50% inhibition of colony formation; read-out: IN VITRO ID 50 HCT116.
Assay type: cell-based, human
Protocol: Four hundred cells (HCT116) were plated in 60 mm Petri dishes containing 2.7 mL of medium (modified McCoy's 5a medium containing 10% fetal bovine serum and 100 units/mL penicillin and […] streptomycin). The cells were incubated in a CO2 incubator at 37 °C for 5 h for attachment to the bottom of Petri dishes. The compounds identified in Example 2 were made up fresh in medium at ten times the final concentration, and then 0.3 mL of this stock solution was added to the 2.7 mL of medium in the dish. The cells were then incubated with drugs for 72 h at 37 °C. At the end of incubation the drug-containing media were decanted, the dishes were rinsed with 4 mL of Hank's Balance Salt Solution (HBSS), 5 mL of fresh medium was added, and the dishes were returned to the incubator for colony formation. The cell colonies were counted using a colony counter after incubation for 7 days.

| SMILES | IC50 [nM] |
| --- | --- |
| CC=CC(=O)OC1C(=O)C2(C)C(O)CC3OCC3(OC(C)=O)C2C(OC(=O)c2ccccc2)C2(O)CC(OC(=O)C(O)C(NC(=O)OC(C)(C)C)c3ccc([N+](=O)[O-])cc3)C(C)=C1C2(C)C (stereo not drawn) [Compound 2439] | < 10 |

Same assay, conditions: Homo sapiens, HCT-116; read-out: IN VITRO ID 50 HCT116

| SMILES | IC50 [nM] |
| --- | --- |
| CC(=O)O[C@@]12CO[C@@H]1C[C@H](O)[C@@]1(C)C(=O)[C@H](OC(=O)C=C(C)C)C3=C(C)[C@@H](OC(=O)[C@H](O)[C@@H](NC(=O)OC(C)(C)C)c4ccco4)C[C@@](O)([C@@H](OC(=O)c4ccccc4)[C@H]21)C3(C)C [Compound 2488] | < 1 |
| CCCC(=O)N[C@@H](c1ccco1)[C@@H](O)C(=O)O[C@H]1C[C@@]2(O)[C@@H](OC(=O)c3ccccc3)[C@@H]3[C@]4(OC(C)=O)CO[C@@H]4C[C@H](O)[C@@]3(C)C(=O)[C@H](OC(=O)CCC)C(=C1C)C2(C)C [Compound 3222] | < 1 |
| CCC(=O)O[C@H]1C(=O)[C@@]2(C)[C@H]([C@H](OC(=O)c3ccccc3)[C@]3(O)C[C@H](OC(=O)[C@H](O)[C@@H](NC(=O)OCC(C)C)C4CC4)C(C)=C1C3(C)C)[C@]1(OC(C)=O)CO[C@@H]1C[C@@H]2O [Compound 4799] | < 1 |
| CCC(=O)O[C@H]1C(=O)[C@@]2(C)[C@H]([C@H](OC(=O)c3ccccc3)[C@]3(O)C[C@H](OC(=O)[C@H](O)[C@@H](NC(=O)OC(C)(C)C)C4CCC4)C(C)=C1C3(C)C)[C@]1(OC(C)=O)CO[C@@H]1C[C@@H]2O [Compound 0596] | < 10 |
| CCCC(=O)O[C@H]1C(=O)[C@@]2(C)[C@H]([C@H](OC(=O)c3ccccc3)[C@]3(O)C[C@H](OC(=O)[C@H](O)[C@@H](NC(=O)c4ccccc4)c4cccs4)C(C)=C1C3(C)C)[C@]1(OC(C)=O)CO[C@@H]1C[C@@H]2O [Compound 3258] | < 1 |
| CCC(=O)OC1C(=O)C2(C)C(O)CC3OCC3(OC(C)=O)C2C(OC(=O)c2ccccc2)C2(O)CC(OC(=O)C(O)C(NC(=O)OC(C)(C)CC)c3ccco3)C(C)=C1C2(C)C (stereo not drawn) [Compound 6522] | < 1 |
| CCC(=O)O[C@H]1C(=O)[C@@]2(C)[C@H]([C@H](OC(=O)c3ccccc3)[C@]3(O)C[C@H](OC(=O)[C@H](O)[C@@H](NC(=O)OC(C)C)c4cccs4)C(C)=C1C3(C)C)[C@]1(OC(C)=O)CO[C@@H]1C[C@@H]2O [Compound 3361] | < 1 |
| CC(=O)O[C@@]12CO[C@@H]1C[C@H](O)[C@@]1(C)C(=O)[C@H](OC(=O)c3cccs3)C3=C(C)[C@@H](OC(=O)[C@H](O)[C@@H](NC(=O)OC(C)(C)C)C(C)C)C[C@@](O)([C@@H](OC(=O)c4ccccc4)[C@H]21)C3(C)C [Compound 1964] | < 10 |
| CCC(=O)O[C@H]1C(=O)[C@@]2(C)[C@H]([C@H](OC(=O)c3ccccc3)[C@]3(O)C[C@H](OC(=O)[C@H](O)[C@@H](NC(=O)c4ccccc4)c4ccccn4)C(C)=C1C3(C)C)[C@]1(OC(C)=O)CO[C@@H]1C[C@@H]2O [Compound 0634] | < 10 |
| CC(=O)OC12COC1CC(O)C1(C)C(=O)C(OC(=O)C(C)C)C3=C(C)C(OC(=O)C(O)C(C=C(C)C)NC(=O)OC(C)(C)C)CC(O)(C(OC(=O)c4ccccc4)C21)C3(C)C (stereo not drawn) [Compound 2226] | < 1 |
| CCC(=O)O[C@H]1C(=O)[C@@]2(C)[C@H]([C@H](OC(=O)c3ccccc3)[C@]3(O)C[C@H](OC(=O)[C@H](O)[C@@H](NC(=O)C=C(C)C)c4cccs4)C(C)=C1C3(C)C)[C@]1(OC(C)=O)CO[C@@H]1C[C@@H]2O [Compound 4335] | < 1 |
| CCCC(=O)O[C@H]1C(=O)[C@@]2(C)[C@H]([C@H](OC(=O)c3ccccc3)[C@]3(O)C[C@H](OC(=O)[C@H](O)[C@@H](NC(=O)OC(C)(C)C)c4cccnc4)C(C)=C1C3(C)C)[C@]1(OC(C)=O)CO[C@@H]1C[C@@H]2O [Compound 0966] | < 10 |
| CCCC(=O)O[C@H]1C(=O)[C@@]2(C)[C@H]([C@H](OC(=O)c3ccccc3)[C@]3(O)C[C@H](OC(=O)[C@H](O)[C@@H](NC(=O)c4cccnc4)c4cccs4)C(C)=C1C3(C)C)[C@]1(OC(C)=O)CO[C@@H]1C[C@@H]2O [Compound 4190] | < 10 |
| CCCC(=O)O[C@H]1C(=O)[C@@]2(C)[C@H]([C@H](OC(=O)c3ccccc3)[C@]3(O)C[C@H](OC(=O)[C@H](O)[C@@H](NC(=O)OCC)c4cccs4)C(C)=C1C3(C)C)[C@]1(OC(C)=O)CO[C@@H]1C[C@@H]2O [Compound 3096] | < 1 |
| CC(=O)O[C@@]12CO[C@@H]1C[C@H](O)[C@@]1(C)C(=O)[C@H](OC(=O)C=C(C)C)C3=C(C)[C@@H](OC(=O)[C@H](O)[C@@H](NC(=O)OC(C)(C)C)c4ccccn4)C[C@@](O)([C@@H](OC(=O)c4ccccc4)[C@H]21)C3(C)C [Compound 2464] | < 1 |
| CC(=O)O[C@@]12CO[C@@H]1C[C@H](O)[C@@]1(C)C(=O)[C@H](OC(=O)C=C(C)C)C3=C(C)[C@@H](OC(=O)[C@H](O)[C@@H](NC(=O)OC(C)(C)C)c4ccsc4)C[C@@](O)([C@@H](OC(=O)c4ccccc4)[C@H]21)C3(C)C [Compound 2511] | < 1 |

| SMILES | IC50 [nM] |
| --- | --- |
| CCCC(=O)O[C@H]1C(=O)[C@@]2(C)[C@H]([C@H](OC(=O)c3ccccc3)[C@]3(O)C[C@H](OC(=O)[C@H](O)[C@@H](NC(=O)c4ccccc4)C4CC4)C(C)=C1C3(C)C)[C@]1(OC(C)=O)CO[C@@H]1C[C@@H]2O [Compound 3482] | < 1 |
| CC(=O)O[C@@]12CO[C@@H]1C[C@H](O)[C@@]1(C)C(=O)[C@H](OC(=O)c3ccco3)C3=C(C)[C@@H](OC(=O)[C@H](O)[C@@H](NC(=O)OC(C)(C)C)c4ccncc4)C[C@@](O)([C@@H](OC(=O)c4ccccc4)[C@H]21)C3(C)C [Compound 2132] | < 1 |
| CCC(=O)O[C@H]1C(=O)[C@@]2(C)[C@H]([C@H](OC(=O)c3ccccc3)[C@]3(O)C[C@H](OC(=O)[C@H](O)[C@@H](NC(=O)c4cccs4)c4cccs4)C(C)=C1C3(C)C)[C@]1(OC(C)=O)CO[C@@H]1C[C@@H]2O [Compound 3425] | < 1 |
| CC(=O)O[C@@]12CO[C@@H]1C[C@H](O)[C@@]1(C)C(=O)[C@H](OC(=O)c3ccco3)C3=C(C)[C@@H](OC(=O)[C@H](O)[C@@H](NC(=O)OC(C)(C)C)C4CCC4)C[C@@](O)([C@@H](OC(=O)c4ccccc4)[C@H]21)C3(C)C [Compound 2199] | < 10 |
| CC(=O)O[C@@]12CO[C@@H]1C[C@H](O)[C@@]1(C)C(=O)[C@H](OC(=O)c3cccs3)C3=C(C)[C@@H](OC(=O)[C@H](O)[C@@H](NC(=O)OC(C)(C)C)C4CCC4)C[C@@](O)([C@@H](OC(=O)c4ccccc4)[C@H]21)C3(C)C [Compound 1970] | < 10 |
| CC(=O)O[C@@]12CO[C@@H]1C[C@H](O)[C@@]1(C)C(=O)[C@H](OC(=O)C3CC3)C3=C(C)[C@@H](OC(=O)[C@H](O)[C@@H](NC(=O)OC(C)(C)C)c4ccco4)C[C@@](O)([C@@H](OC(=O)c4ccccc4)[C@H]21)C3(C)C [Compound 0843] | < 1 |
| CCC(=O)O[C@H]1C(=O)[C@@]2(C)[C@H]([C@H](OC(=O)c3ccccc3)[C@]3(O)C[C@H](OC(=O)[C@H](O)[C@@H](NC(=O)OC(C)(C)C)c4ccncc4)C(C)=C1C3(C)C)[C@]1(OC(C)=O)CO[C@@H]1C[C@@H]2O [Compound 0521] | < 1 |
| CC(=O)O[C@@]12CO[C@@H]1C[C@H](O)[C@@]1(C)C(=O)[C@H](OC(=O)c3ccco3)C3=C(C)[C@@H](OC(=O)[C@H](O)[C@@H](NC(=O)OC(C)(C)C)c4ccccn4)C[C@@](O)([C@@H](OC(=O)c4ccccc4)[C@H]21)C3(C)C [Compound 2111] | < 1 |
| CC(=O)O[C@@]12CO[C@@H]1C[C@H](O)[C@@]1(C)C(=O)[C@H](OC(=O)C3CC3)C3=C(C)[C@@H](OC(=O)[C@H](O)[C@@H](NC(=O)c4cccnc4)c4cccs4)C[C@@](O)([C@@H](OC(=O)c4ccccc4)[C@H]21)C3(C)C [Compound 4112] | < 10 |
| CC(=O)O[C@@]12CO[C@@H]1C[C@H](O)[C@@]1(C)C(=O)[C@H](OC(=O)C3CC3)C3=C(C)[C@@H](OC(=O)[C@H](O)[C@@H](NC(=O)OCC(C)C)c4ccoc4)C[C@@](O)([C@@H](OC(=O)c4ccccc4)[C@H]21)C3(C)C [Compound 4665] | < 10 |
| CC(=O)O[C@@]12CO[C@@H]1C[C@H](O)[C@@]1(C)C(=O)[C@H](OC(=O)c3cccs3)C3=C(C)[C@@H](OC(=O)[C@H](O)[C@@H](NC(=O)OC(C)(C)C)c4ccccc4)C[C@@](O)([C@@H](OC(=O)c4ccccc4)[C@H]21)C3(C)C [Compound 1988] | < 10 |
| CC(=O)O[C@@]12CO[C@@H]1C[C@H](O)[C@@]1(C)C(=O)[C@H](OC(=O)C3CC3)C3=C(C)[C@@H](OC(=O)[C@H](O)[C@@H](NC(=O)OC(C)(C)C)c4ccoc4)C[C@@](O)([C@@H](OC(=O)c4ccccc4)[C@H]21)C3(C)C [Compound 2781] | < 1 |
| CCC(=O)O[C@H]1C(=O)[C@@]2(C)[C@H]([C@H](OC(=O)c3ccccc3)[C@]3(O)C[C@H](OC(=O)[C@H](O)[C@@H](NC(=O)c4ccccc4)c4ccc([N+](=O)[O-])cc4)C(C)=C1C3(C)C)[C@]1(OC(C)=O)CO[C@@H]1C[C@@H]2O [Compound 0732] | < 10 |
| CCC(=O)O[C@H]1C(=O)[C@@]2(C)[C@H]([C@H](OC(=O)c3ccccc3)[C@]3(O)C[C@H](OC(=O)[C@H](O)[C@@H](NC(=O)c4ccccc4)c4ccsc4)C(C)=C1C3(C)C)[C@]1(OC(C)=O)CO[C@@H]1C[C@@H]2O [Compound 0691] | < 1 |
| CCCC(=O)O[C@H]1C(=O)[C@@]2(C)[C@H]([C@H](OC(=O)c3ccccc3)[C@]3(O)C[C@H](OC(=O)[C@H](O)[C@@H](NC(=O)c4ccccc4)c4ccco4)C(C)=C1C3(C)C)[C@]1(OC(C)=O)CO[C@@H]1C[C@@H]2O [Compound 3204] | < 1 |
| CC(=O)OC12COC1CC(O)C1(C)C(=O)C(OC(=O)C(C)C)C3=C(C)C(OC(=O)C(O)C(NC(=O)OC(C)(C)C)c4ccco4)CC(O)(C(OC(=O)c4ccccc4)C21)C3(C)C (stereo not drawn) [Compound 2269] | < 1 |
